# Data: patent US7943550B2, “4-(3-Aminobenzoyl)-1 methylpyrazoles and their use as herbicides” (Bayer Cropscience AG, priority 2007, dated 2011)
# Where two headings read alike, the source gives them in different places.
# Assays:
# Assay type in all cases: in vivo
# Xanthium strumarium = experiment: Post-emergence herbicidal action against harmful plants; conditions: Comparative Table 1, 20 g a.i./ha, scored after 3 to 4 weeks
# Description: (§1) 2. Post-Emergence Herbicidal Action Against Harmful Plants
# (§2) Seeds of mono- and dicotyledonous harmful plants are placed in sandy loam in cardboard pots, covered with soil and grown in the greenhouse under good growth conditions. Two to three weeks after sowing, the test plants are treated at the three-leaf stage. The compounds according to the invention, which are formulated as wettable powders or as emulsion concentrates, are sprayed at an application rate of 600 to 800 l of water/ha (converted) in a dosage stated in tables 1 to 5 onto the surface of the green plant parts. After the test plants have been left to stand in the greenhouse for 3 to 4 weeks under optimum growth conditions, the action of the compounds according to the invention is scored in comparison to compounds disclosed in the prior art. As shown by the results of these comparison tables, the selected compounds according to the invention have better herbicidal activity against a broad spectrum of economically important mono- and dicotyledonous harmful plants than the compounds disclosed in the prior art.
# Polygonum convolvulus [1] = experiment: as above; conditions: Comparative Table 1, 20 g a.i./ha, scored after 3 to 4 weeks
# Description: as §1, §2
# Viola tricolor = experiment: as above; conditions: scored after 3 to 4 weeks
# Description: as §1, §2
# Amaranthus retroflexus [2] = experiment: as above; conditions: scored after 3 to 4 weeks
# Description: as §1, §2
# Setaria viridis [3] = experiment: as above; conditions: scored after 3 to 4 weeks, read-out: Activity against harmful plants SETVI; for pest or weed control at 80 g/ha: Comparative Table 2, 80 g a.i./ha
# Description: as §1, §2
# Pharbitis purpureum = experiment: as above; conditions: scored after 3 to 4 weeks
# Description: as §1, §2
# Veronica persica [4] = experiment: as above; conditions: scored after 3 to 4 weeks
# Description: as §1, §2
# Galium aparine = experiment: as above; conditions: Comparative Table 4, 20 g a.i./ha, scored after 3 to 4 weeks
# Description: as §1, §2
# Digitaria sanguinalis = experiment: as above; conditions: Comparative Table 4, 20 g a.i./ha, scored after 3 to 4 weeks
# Description: as §1, §2
# Setaria viridis [5] = experiment: Pre-emergence herbicidal action against harmful plants; conditions: visual scoring 3-4 weeks after treatment
# Source text: (§3) 1. Pre-Emergence Herbicidal Action Against Harmful Plants Seeds or rhizome pieces of mono- and dicotyledonous harmful plants are placed in sandy loam in pots of a diameter of 9 to 13 cm and covered with soil. The herbicides, formulated as emulsifiable concentrates or dusts, are applied to the surface of the covering soil in the form of aqueous dispersions or suspensions or emulsions at an application rate of 300 to 800 l of water/ha (converted), at various dosages. For further cultivation of the plants, the pots are then kept in a greenhouse under optimum conditions. The visual scoring of the damage to the harmful plants is carried out 3-4 weeks after the treatment. As shown by the results of these comparative tables, the selected compounds according to the invention have better herbicidal activity against a broad spectrum of economically important mono- and dicotyledonous harmful plants than the compounds disclosed in the prior art.
# Echinochloa crus galli = experiment: as above; conditions: visual scoring 3-4 weeks after treatment
# Source text: as §3
# Avena fatua = experiment: as above; conditions: Comparative Table 5, 80 g a.i./ha, visual scoring 3-4 weeks after treatment
# Source text: as §3
# Amaranthus retroflexus [6] = experiment: as above; conditions: Comparative Table 5, 80 g a.i./ha, visual scoring 3-4 weeks after treatment
# Source text: as §3
# Veronica persica [7] = experiment: as above; conditions: Comparative Table 7, 320 g a.i./ha, visual scoring 3-4 weeks after treatment
# Source text: as §3
# Cyperus serotinus = experiment: as above; conditions: Comparative Table 7, 320 g a.i./ha, visual scoring 3-4 weeks after treatment
# Source text: as §3
# Polygonum convolvulus [8] = experiment: as above; conditions: Comparative Table 7, 320 g a.i./ha, visual scoring 3-4 weeks after treatment
# Source text: as §3
# Stellaria media = experiment: Post-emergence herbicidal action against harmful plants; conditions: Comparative Table 8, 20 g a.i./ha, scored after 3 to 4 weeks
# Description: as §1, §2
# Abutilon theophrasti = experiment: as above; conditions: Comparative Table 8, 20 g a.i./ha, scored after 3 to 4 weeks
# Description: as §1, §2
# [9] = Comparative Table 1, 20 g a.i./ha
# [10] = Comparative Table 2, 80 g a.i./ha
# [11] = Comparative Table 3, 20 g a.i./ha
# [12] = Comparative Table 4, 20 g a.i./ha
# [13] = Comparative Table 5, 80 g a.i./ha
# [14] = Comparative Table 6, 20 g a.i./ha
# [15] = Comparative Table 8, 20 g a.i./ha
structure (smiles),measurement,setting,value
CNc1c(S(C)(=O)=O)ccc(C(=O)c2cnn(C)c2O)c1C,Activity against harmful plants XANST,Xanthium strumarium,80%
same,Activity against harmful plants POLCO,Polygonum convolvulus [1],90%
same,Activity against harmful plants VIOTR,Viola tricolor; [9],100%
same,Activity against harmful plants AMARE,Amaranthus retroflexus [2]; [9],90%
CNc1c(S(C)(=O)=O)ccc(C(=O)c2cnn(C)c2O)c1Cl,Activity against harmful plants XANST,Xanthium strumarium,50%
same,Activity against harmful plants POLCO,Polygonum convolvulus [1],40%
same,Activity against harmful plants VIOTR,Viola tricolor; [9],70%
same,Activity against harmful plants AMARE,Amaranthus retroflexus [2]; [9],70%
COCCCN(C)c1c(S(C)(=O)=O)ccc(C(=O)c2cnn(C)c2O)c1C,pest or weed control at 80 g/ha,Setaria viridis [3],100%
same,Activity against harmful plants VIOTR,Viola tricolor; [10],90%
same,Activity against harmful plants PHBPU,Pharbitis purpureum; [10],70%
same,Activity against harmful plants AMARE,Amaranthus retroflexus [2]; [10],100%
COCCCN(C)c1c(S(C)(=O)=O)ccc(C(=O)c2cnn(C)c2O)c1Cl,pest or weed control at 80 g/ha,Setaria viridis [3],0%
same,Activity against harmful plants VIOTR,Viola tricolor; [10],70%
same,Activity against harmful plants PHBPU,Pharbitis purpureum; [10],40%
same,Activity against harmful plants AMARE,Amaranthus retroflexus [2]; [10],70%
COCCN(C)c1c(S(C)(=O)=O)ccc(C(=O)c2cnn(C)c2O)c1C,Activity against harmful plants VERPE,Veronica persica [4]; [11],100%
same,pest or weed control at 20 g/ha,Setaria viridis [3]; [11],90%
same,Activity against harmful plants PHBPU,Pharbitis purpureum; [11],80%
same,Activity against harmful plants AMARE,Amaranthus retroflexus [2]; [11],90%
COCCN(C)c1c(S(C)(=O)=O)ccc(C(=O)c2cnn(C)c2O)c1Cl,Activity against harmful plants VERPE,Veronica persica [4]; [11],60%
same,pest or weed control at 20 g/ha,Setaria viridis [3]; [11],50%
same,Activity against harmful plants PHBPU,Pharbitis purpureum; [11],30%
same,Activity against harmful plants AMARE,Amaranthus retroflexus [2]; [11],60%
CCCNc1c(S(C)(=O)=O)ccc(C(=O)c2cnn(C)c2O)c1C,Activity against harmful plants GALAP,Galium aparine,80%
same,Activity against harmful plants VERPE,Veronica persica [4]; [12],70%
same,pest or weed control at 20 g/ha,Setaria viridis [3]; [12],80%
same,Activity against harmful plants DIGSA,Digitaria sanguinalis,90%
CCCNc1c(S(C)(=O)=O)ccc(C(=O)c2cnn(C)c2O)c1Cl,Activity against harmful plants GALAP,Galium aparine,30%
same,Activity against harmful plants VERPE,Veronica persica [4]; [12],30%
same,pest or weed control at 20 g/ha,Setaria viridis [3]; [12],50%
same,Activity against harmful plants DIGSA,Digitaria sanguinalis,70%
CCOCCNc1c(S(C)(=O)=O)ccc(C(=O)c2cnn(C)c2O)c1C,Activity against harmful plants SETVI,Setaria viridis [5]; [13],100%
same,Activity against harmful plants ECHCG,Echinochloa crus galli; [13],100%
same,Activity against harmful plants AVEFA,Avena fatua,50%
same,Activity against harmful plants AMARE,Amaranthus retroflexus [6],100%
CCOCCNc1c(S(C)(=O)=O)ccc(C(=O)c2cnn(C)c2O)c1Cl,Activity against harmful plants SETVI,Setaria viridis [5]; [13],80%
same,Activity against harmful plants ECHCG,Echinochloa crus galli; [13],40%
same,Activity against harmful plants AVEFA,Avena fatua,0%
same,Activity against harmful plants AMARE,Amaranthus retroflexus [6],80%
CCNc1c(S(C)(=O)=O)ccc(C(=O)c2cnn(C)c2O)c1C,Activity against harmful plants SETVI,Setaria viridis [5]; [14],60%
same,Activity against harmful plants ECHCG,Echinochloa crus galli; [14],90%
CCNc1c(S(C)(=O)=O)ccc(C(=O)c2cnn(C)c2O)c1Cl,Activity against harmful plants SETVI,Setaria viridis [5]; [14],0%
same,Activity against harmful plants ECHCG,Echinochloa crus galli; [14],60%
Cc1c(C(=O)c2cnn(C)c2O)ccc(S(C)(=O)=O)c1NCC1CC1,Activity against harmful plants VERPE,Veronica persica [7],100%
same,Activity against harmful plants CYPES,Cyperus serotinus,100%
same,Activity against harmful plants POLCO,Polygonum convolvulus [8],60%
Cn1ncc(C(=O)c2ccc(S(C)(=O)=O)c(NCC3CC3)c2Cl)c1O,Activity against harmful plants VERPE,Veronica persica [7],80%
same,Activity against harmful plants CYPES,Cyperus serotinus,40%
same,Activity against harmful plants POLCO,Polygonum convolvulus [8],0%
Cc1c(C(=O)c2cnn(C)c2O)ccc(S(C)(=O)=O)c1N(C)CC1CC1,Activity against harmful plants STEME,Stellaria media,100%
same,Activity against harmful plants VERPE,Veronica persica [4]; [15],80%
same,pest or weed control at 20 g/ha,Setaria viridis [3]; [15],90%
same,Activity against harmful plants ABUTH,Abutilon theophrasti,90%
CN(CC1CC1)c1c(S(C)(=O)=O)ccc(C(=O)c2cnn(C)c2O)c1Cl,Activity against harmful plants STEME,Stellaria media,80%
same,Activity against harmful plants VERPE,Veronica persica [4]; [15],60%
same,pest or weed control at 20 g/ha,Setaria viridis [3]; [15],30%
same,Activity against harmful plants ABUTH,Abutilon theophrasti,70%
